This is an account of results in ChEMBL document CHEMBL4507274 (2021).

Molecules are shown by their SMILES.

The target of assay [1] is Rho-associated protein kinase 2 (Homo sapiens, UniProt O75116). As to the kind of experiment: Biochemical ROCK2 assay.
For assay [2], the system named is Epidermal growth factor receptor (Homo sapiens), P00533 [UNDEFINED MUTATION]. Particulars: Compound concentration 100.0 nM; call rule not given here.
Assay [3] addresses T1, Dual specificity mitogen-activated protein kinase kinase 7 (Homo sapiens) (UniProt O14733).
T1 sequence (whole entry): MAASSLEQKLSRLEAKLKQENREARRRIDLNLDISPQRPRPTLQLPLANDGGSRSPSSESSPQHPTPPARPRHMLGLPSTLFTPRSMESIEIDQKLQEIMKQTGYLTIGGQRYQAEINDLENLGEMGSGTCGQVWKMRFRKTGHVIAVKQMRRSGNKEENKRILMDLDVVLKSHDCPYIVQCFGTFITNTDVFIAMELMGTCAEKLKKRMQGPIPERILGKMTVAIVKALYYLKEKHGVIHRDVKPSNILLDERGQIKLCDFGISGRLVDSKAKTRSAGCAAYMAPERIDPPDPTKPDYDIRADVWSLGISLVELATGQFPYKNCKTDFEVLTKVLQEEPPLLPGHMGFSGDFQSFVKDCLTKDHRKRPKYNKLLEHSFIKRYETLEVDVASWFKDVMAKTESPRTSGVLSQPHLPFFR
As to the kind of experiment: MKK7βbeta(h) Upstate kinase activity assay. Particulars: Compound concentration 10.0 uM.

The target in assay [4] is Cyclin-dependent kinase 5/CDK5 activator 1 (Homo sapiens) (UniProt Q00535+Q15078). In words: CDK5/ p35 (h) Upstate kinase activity assay. It counts as protein-complex assay. The conditions noted are these: Compound concentration 10.0 uM.
Assay [5] concerns the target Protein kinase C beta type (Homo sapiens) (UniProt P05771). As to the kind of experiment: PKCBII(h) Upstate kinase activity assay. Particulars: Compound concentration 10.0 uM.
Assay [6] addresses Tyrosine-protein kinase Lyn (Mus musculus) (UniProt P25911). As to the kind of experiment: Lyn (m) Upstate kinase activity assay. The conditions noted are these: Compound concentration 10.0 uM.
The next assay concerns A-431. As to the kind of experiment: Skin A431 cell line MDS Pharma Services Proliferation Assay. The format is functional, cell-based, Homo sapiens.
The target in assay [7] is T2, Serine/threonine-protein kinase Sgk1 (Homo sapiens) (UniProt O00141).
T2 sequence (whole entry): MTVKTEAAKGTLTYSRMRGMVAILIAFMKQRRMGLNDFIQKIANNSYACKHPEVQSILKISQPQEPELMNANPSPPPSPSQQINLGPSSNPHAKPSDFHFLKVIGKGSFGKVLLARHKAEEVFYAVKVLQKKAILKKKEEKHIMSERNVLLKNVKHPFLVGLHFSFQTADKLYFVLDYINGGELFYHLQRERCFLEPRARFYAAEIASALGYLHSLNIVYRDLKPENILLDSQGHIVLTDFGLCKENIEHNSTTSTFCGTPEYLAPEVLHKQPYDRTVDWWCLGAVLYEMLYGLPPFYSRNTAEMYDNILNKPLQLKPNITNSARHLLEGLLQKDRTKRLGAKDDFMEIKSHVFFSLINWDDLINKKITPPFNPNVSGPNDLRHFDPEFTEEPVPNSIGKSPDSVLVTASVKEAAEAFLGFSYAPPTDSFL
As to the kind of experiment: SGK (h) Upstate kinase activity assay. Particulars: Compound concentration 10.0 uM.

Assay [8] concerns the target T3, Ephrin type-B receptor 4 (Homo sapiens) (UniProt P54760).
T3 sequence (whole entry): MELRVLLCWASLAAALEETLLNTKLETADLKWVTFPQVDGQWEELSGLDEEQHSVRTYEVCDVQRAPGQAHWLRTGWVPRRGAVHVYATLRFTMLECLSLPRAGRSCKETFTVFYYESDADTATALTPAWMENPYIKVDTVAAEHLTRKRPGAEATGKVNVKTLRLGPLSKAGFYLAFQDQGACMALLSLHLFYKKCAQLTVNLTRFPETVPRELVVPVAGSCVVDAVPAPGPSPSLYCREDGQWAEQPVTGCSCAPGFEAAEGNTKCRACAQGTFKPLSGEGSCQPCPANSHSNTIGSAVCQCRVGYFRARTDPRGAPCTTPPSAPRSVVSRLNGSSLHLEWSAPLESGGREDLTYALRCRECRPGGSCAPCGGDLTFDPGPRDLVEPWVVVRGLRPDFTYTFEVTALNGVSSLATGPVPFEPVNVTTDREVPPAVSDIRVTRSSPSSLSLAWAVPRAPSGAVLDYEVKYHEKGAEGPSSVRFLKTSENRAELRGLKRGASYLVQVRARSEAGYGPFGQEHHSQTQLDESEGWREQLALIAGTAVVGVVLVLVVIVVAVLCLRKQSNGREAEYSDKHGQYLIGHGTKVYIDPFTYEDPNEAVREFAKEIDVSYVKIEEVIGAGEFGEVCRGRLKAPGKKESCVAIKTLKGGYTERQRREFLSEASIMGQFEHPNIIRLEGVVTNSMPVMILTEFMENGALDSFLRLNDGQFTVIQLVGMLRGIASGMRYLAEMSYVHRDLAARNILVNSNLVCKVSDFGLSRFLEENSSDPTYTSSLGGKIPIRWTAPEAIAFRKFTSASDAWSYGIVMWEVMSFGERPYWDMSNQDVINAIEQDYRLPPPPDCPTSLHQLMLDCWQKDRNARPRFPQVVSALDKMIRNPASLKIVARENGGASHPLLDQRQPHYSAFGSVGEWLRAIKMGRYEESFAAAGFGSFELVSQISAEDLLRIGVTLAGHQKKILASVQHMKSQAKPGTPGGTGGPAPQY
In words: EphB4 (h) Upstate kinase activity assay. Particulars: Compound concentration 10.0 uM.

Assay [9] has as its target Mitogen-activated protein kinase 10 (Homo sapiens) (UniProt P53779). In words: JNK3 (h) Upstate kinase activity assay. Particulars: Compound concentration 10.0 uM.
For assay [10], the target named is Sigma intracellular receptor 2 (Homo sapiens) (UniProt Q5BJF2). The conditions noted are these: Compound concentration 10.0 uM.
Assay [11] deals with Mitogen-activated protein kinase 1 (Homo sapiens) (UniProt P28482). In words: MAPK1 (h) Upstate kinase activity assay. Particulars: Compound concentration 10.0 uM.
Assay [12] concerns the target Serine/threonine-protein kinase pim-1 (Homo sapiens) (UniProt P11309). In words: Pim-1 (h) Upstate kinase activity assay. Particulars: Compound concentration 10.0 uM.

Chain of Serine/threonine-protein kinase pim-1 (Homo sapiens) (P11309 whole entry, looked up): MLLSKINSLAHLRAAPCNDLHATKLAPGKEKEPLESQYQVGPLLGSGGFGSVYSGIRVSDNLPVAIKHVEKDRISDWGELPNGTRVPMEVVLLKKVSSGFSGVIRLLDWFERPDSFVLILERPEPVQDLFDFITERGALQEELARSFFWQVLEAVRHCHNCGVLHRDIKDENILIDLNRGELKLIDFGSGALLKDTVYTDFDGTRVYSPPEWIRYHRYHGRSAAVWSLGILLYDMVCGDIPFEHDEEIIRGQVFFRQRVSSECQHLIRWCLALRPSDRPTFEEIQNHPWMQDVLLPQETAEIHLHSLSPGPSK
Chain of Epidermal growth factor receptor (Homo sapiens), P00533 [UNDEFINED MUTATION] (P00533 whole entry, looked up, change not shown): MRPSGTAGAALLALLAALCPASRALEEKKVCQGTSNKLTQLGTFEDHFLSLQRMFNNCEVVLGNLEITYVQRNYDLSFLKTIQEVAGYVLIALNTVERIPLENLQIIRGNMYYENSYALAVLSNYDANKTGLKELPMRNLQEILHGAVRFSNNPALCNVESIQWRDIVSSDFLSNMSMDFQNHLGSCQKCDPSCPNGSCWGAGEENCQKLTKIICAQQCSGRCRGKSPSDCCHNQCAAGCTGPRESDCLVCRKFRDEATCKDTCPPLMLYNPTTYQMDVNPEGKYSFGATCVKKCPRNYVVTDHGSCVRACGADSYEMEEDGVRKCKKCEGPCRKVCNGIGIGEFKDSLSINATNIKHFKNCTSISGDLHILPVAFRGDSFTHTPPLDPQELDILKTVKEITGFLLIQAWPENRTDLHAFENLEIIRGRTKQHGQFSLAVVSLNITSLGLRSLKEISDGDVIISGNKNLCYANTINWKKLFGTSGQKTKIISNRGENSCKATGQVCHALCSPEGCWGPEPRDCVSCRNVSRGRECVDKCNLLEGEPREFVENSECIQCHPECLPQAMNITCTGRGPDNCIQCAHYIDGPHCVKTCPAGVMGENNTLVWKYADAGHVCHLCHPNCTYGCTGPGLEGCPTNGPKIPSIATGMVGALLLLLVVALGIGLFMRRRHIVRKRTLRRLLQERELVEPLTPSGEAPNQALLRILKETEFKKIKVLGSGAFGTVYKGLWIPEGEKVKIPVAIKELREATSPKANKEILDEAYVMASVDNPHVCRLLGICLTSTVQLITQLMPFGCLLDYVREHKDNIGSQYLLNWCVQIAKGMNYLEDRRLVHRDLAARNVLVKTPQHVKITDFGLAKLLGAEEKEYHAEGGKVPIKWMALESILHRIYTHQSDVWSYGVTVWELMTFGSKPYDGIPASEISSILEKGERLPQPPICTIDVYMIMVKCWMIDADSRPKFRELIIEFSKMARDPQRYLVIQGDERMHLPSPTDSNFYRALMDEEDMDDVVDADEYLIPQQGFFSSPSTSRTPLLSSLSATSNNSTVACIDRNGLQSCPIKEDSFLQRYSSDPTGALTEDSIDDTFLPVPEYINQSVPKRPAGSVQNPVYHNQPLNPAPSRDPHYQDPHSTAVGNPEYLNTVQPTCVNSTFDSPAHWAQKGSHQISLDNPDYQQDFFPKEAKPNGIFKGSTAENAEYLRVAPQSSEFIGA
Chain of Mitogen-activated protein kinase 1 (Homo sapiens) (P28482 whole entry): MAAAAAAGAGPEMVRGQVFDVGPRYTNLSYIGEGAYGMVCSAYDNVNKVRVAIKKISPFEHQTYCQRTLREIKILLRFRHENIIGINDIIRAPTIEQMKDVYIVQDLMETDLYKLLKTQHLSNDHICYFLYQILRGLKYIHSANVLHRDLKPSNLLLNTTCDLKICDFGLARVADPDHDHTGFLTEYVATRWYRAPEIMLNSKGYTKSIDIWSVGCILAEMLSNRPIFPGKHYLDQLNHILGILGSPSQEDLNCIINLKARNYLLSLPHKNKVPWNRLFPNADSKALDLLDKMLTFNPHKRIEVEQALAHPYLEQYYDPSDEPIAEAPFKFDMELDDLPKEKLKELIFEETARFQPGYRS
Chain of Rho-associated protein kinase 2 (O75116 whole entry): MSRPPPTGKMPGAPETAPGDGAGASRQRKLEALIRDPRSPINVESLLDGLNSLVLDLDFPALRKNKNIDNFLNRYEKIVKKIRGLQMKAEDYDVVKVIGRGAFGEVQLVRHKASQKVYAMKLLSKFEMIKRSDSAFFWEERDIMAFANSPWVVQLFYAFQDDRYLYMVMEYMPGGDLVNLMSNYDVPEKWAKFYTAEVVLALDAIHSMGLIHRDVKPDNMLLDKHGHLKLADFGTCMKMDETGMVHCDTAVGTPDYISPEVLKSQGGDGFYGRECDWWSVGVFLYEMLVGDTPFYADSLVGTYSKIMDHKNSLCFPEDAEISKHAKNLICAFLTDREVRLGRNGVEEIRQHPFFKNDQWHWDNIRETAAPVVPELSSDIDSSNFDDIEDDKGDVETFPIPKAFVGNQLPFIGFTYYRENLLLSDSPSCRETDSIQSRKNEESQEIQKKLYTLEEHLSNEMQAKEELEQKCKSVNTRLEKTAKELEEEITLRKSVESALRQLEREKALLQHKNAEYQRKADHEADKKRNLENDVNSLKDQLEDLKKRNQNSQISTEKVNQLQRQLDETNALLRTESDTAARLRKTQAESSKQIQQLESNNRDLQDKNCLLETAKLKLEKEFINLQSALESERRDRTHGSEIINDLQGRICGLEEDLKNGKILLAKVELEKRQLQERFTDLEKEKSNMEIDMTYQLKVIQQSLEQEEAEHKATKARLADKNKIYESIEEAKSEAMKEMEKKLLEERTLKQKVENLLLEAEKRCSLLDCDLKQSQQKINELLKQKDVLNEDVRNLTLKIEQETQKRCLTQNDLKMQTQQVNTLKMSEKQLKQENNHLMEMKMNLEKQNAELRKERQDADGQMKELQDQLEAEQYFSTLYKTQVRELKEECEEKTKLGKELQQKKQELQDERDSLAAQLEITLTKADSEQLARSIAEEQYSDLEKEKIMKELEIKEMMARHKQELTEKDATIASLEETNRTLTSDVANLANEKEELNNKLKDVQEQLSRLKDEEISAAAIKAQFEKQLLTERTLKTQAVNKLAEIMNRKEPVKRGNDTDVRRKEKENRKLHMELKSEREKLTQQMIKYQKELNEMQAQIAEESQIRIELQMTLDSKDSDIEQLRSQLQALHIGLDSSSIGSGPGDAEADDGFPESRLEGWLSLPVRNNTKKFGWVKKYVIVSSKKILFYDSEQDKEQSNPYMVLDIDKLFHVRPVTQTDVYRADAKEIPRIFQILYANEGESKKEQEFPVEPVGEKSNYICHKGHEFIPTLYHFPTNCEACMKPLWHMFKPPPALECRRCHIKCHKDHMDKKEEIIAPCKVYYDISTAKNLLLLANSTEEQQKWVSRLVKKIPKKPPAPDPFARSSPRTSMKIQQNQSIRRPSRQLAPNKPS
Chain of Tyrosine-protein kinase Lyn (Mus musculus) (P25911 whole entry): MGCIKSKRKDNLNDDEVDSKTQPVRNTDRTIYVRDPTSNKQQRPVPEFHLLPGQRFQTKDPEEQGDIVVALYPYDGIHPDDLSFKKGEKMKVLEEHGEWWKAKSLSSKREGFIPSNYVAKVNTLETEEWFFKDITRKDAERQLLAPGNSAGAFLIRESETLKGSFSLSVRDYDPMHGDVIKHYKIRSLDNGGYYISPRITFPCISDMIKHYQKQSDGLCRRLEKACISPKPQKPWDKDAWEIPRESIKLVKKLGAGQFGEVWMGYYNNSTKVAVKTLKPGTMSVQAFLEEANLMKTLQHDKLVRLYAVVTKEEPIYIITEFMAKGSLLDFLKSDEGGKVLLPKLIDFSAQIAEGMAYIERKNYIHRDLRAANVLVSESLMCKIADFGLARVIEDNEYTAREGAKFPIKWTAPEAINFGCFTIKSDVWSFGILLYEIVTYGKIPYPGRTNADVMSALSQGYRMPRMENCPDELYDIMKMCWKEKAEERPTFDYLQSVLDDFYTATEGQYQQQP
Chain of Cyclin-dependent kinase 5/CDK5 activator 1 (Homo sapiens) (Q00535 whole entry): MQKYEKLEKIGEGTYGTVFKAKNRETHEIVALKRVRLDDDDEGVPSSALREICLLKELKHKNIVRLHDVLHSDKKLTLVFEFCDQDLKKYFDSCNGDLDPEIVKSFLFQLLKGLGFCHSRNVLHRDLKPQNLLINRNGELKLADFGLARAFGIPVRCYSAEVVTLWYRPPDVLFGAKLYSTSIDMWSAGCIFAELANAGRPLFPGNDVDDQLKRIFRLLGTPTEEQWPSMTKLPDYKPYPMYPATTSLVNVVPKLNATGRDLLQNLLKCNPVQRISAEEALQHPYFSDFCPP
Chain of Cyclin-dependent kinase 5/CDK5 activator 1 (Homo sapiens) (Q15078 99-307 partner limits assumed): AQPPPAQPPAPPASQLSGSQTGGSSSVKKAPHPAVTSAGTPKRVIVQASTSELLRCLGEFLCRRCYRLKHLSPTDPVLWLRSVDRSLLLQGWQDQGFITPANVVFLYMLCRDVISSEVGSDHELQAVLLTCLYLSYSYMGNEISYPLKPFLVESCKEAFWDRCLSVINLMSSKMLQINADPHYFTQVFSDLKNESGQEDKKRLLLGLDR
Chain of Sigma intracellular receptor 2 (Homo sapiens) (Q5BJF2 whole entry): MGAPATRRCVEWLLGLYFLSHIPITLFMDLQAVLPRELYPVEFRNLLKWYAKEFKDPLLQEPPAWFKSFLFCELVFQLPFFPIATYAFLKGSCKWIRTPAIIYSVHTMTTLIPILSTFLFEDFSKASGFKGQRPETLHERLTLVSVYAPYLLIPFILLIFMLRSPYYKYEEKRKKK
Chain of Mitogen-activated protein kinase 10 (Homo sapiens) (P53779 whole entry): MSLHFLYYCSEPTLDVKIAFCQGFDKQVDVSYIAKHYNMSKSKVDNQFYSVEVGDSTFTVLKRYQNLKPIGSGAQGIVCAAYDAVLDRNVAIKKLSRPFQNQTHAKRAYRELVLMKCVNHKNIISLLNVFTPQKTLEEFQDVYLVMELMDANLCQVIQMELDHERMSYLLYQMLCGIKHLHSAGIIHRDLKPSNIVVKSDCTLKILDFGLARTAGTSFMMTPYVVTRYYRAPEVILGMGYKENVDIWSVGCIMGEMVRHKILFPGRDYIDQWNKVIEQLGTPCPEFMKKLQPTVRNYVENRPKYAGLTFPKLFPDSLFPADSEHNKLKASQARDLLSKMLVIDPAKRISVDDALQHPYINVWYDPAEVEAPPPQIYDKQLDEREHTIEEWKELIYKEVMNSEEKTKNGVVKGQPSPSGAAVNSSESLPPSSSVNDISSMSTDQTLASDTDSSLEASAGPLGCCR

For `Cn1cc(Cl)c2c(Oc3c(F)cc(Nc4cc(Cl)nc(N)n4)cc3F)ccnc21` [BAY-4900], the IC50 (as a rule, the concentration needed to halve the response being measured) in assay [1] is recorded as 17.7 µM (not active). Further, the residual activity (commonly the signal under treatment as a percentage of the control signal) in assay [2] was 77%.
On to `Cc1c[nH]c2nccc(Oc3c(F)cc(Nc4cc(Cl)nc(N)n4)cc3F)c12` [BAY-549], for which the inhibition (as a rule, the change of the read-out against control, counted positive when it falls) was 20% in assay [3]; 7% in assay [4]; 9% in assay [5]; 4% in [6]; 76% in assay [7]; -9% in [8]. Moreover, the inhibition in assay [9] is 8%; in [10], 31.9%; in assay [11], 1%; in [12], 20%. The compound also yielded an IC50 in the assay on A-431 (Homo sapiens, A-431) of 5.5 µM. Besides, total growth inhibition in the assay on A-431 (Homo sapiens, A-431) (TGI) required 31 µM. For the same compound, the CC50 with A-431 (Homo sapiens, A-431, read-out: LC50 (the source's name)) was above 100 µM. Further, in the assay on A-431 (± SEM 3 % growth), the “Mean % growth (n = 2) for 1.0 µM probe concentration” value stood at 77%. For the same compound, the “Mean % growth (n = 2) for 10.0 µM probe concentration” value in the assay with A-431 (± SEM 3 % growth) was 35%. Besides, the “Mean % growth (n = 2) for 100.0 µM probe concentration” value in the assay on A-431 (± SEM 5 % growth) is -36%. Moreover, in the assay with A-431 (± SEM 6 % growth), the “Mean % growth (n = 2) for 0.1 µM probe concentration” value is reported as 103%. For the same compound, in the assay on A-431 (± SEM 9 % growth), the “Mean % growth (n = 2) for 0.01 µM probe concentration” value was determined as 92%.
